Measured values from the kinase profiling compilation of Christmann-Franck et al. (2016).

Experiments:
Assay in all cases: KINOMEscan competition binding
Conditions in all cases: compound 10.0 µM
BLK (human) = BLK (human) (UniProt P51451)
BRSK1 (human) = BRSK1 (human) (UniProt Q8TDC3)
BTK (human) = BTK (human) (UniProt Q06187)
CAMK2B (human) = CAMK2B (human) (UniProt Q13554)
CDC42BPA (human) = CDC42BPA (human) (UniProt Q5VT25)
CDK14 (human) = CDK14 (human) (UniProt O94921)
CSNK1A1 (human) = CSNK1A1 (human) (UniProt P48729)
CSNK1A1L (human) = CSNK1A1L (human) (UniProt Q8N752)
CaMK1 (human) = CaMK1 (human) (UniProt Q14012)
DAPK3 (human) = DAPK3 (human) (UniProt O43293)
[1] = test system: EIF2AK4 KD2 (human), Q9P2K8 [S808G]
EPHA8 (human) = EPHA8 (human) (UniProt P29322)
FGFR3 (human) = FGFR3 (human) (UniProt P22607)
GAK (human) = GAK (human) (UniProt O14976)
GRK7 (human) = GRK7 (human) (UniProt Q8WTQ7)
HCK (human) = HCK (human) (UniProt P08631)
LIMK1 (human) = LIMK1 (human) (UniProt P53667)
LIMK2 (human) = LIMK2 (human) (UniProt P53671)
MAP2K7 (human) = MAP2K7 (human) (UniProt O14733)
MAP3K10 (human) = MAP3K10 (human) (UniProt Q02779)
MAP3K4 (human) = MAP3K4 (human) (UniProt Q9Y6R4)
MAP3K6 (human) = MAP3K6 (human) (UniProt O95382)
MAP4K1 (human) = MAP4K1 (human) (UniProt Q92918)
MAP4K3 (human) = MAP4K3 (human) (UniProt Q8IVH8)
MAPK14 (human) = MAPK14 (human) (UniProt Q16539)
MAPK3 (human) = MAPK3 (human) (UniProt P27361)
MARK3 (human) = MARK3 (human) (UniProt P27448)
MAST1 (human) = MAST1 (human) (UniProt Q9Y2H9)
NTRK3 (human) = NTRK3 (human) (UniProt Q16288)
PAK3 (human) = PAK3 (human) (UniProt O75914)
PHKG2 (human) = PHKG2 (human) (UniProt P15735)
PIM2 (human) = PIM2 (human) (UniProt Q9P1W9)
PIP4K2C (human) = PIP4K2C (human) (UniProt Q8TBX8)
RPS6KA4 KD1 (human) = RPS6KA4 KD1 (human) (UniProt O75676)
SNRK (human) = SNRK (human) (UniProt Q9NRH2)
SRPK1 (human) = SRPK1 (human) (UniProt Q96SB4)
SRPK2 (human) = SRPK2 (human) (UniProt P78362)
TNK2 (human) = TNK2 (human) (UniProt Q07912)
[2] = target: TYK2 JH1 catalytic (human) (UniProt P29597)
YES1 (human) = YES1 (human) (UniProt P07947)

LIMK2 (human), sequence (P53671 whole entry, looked up): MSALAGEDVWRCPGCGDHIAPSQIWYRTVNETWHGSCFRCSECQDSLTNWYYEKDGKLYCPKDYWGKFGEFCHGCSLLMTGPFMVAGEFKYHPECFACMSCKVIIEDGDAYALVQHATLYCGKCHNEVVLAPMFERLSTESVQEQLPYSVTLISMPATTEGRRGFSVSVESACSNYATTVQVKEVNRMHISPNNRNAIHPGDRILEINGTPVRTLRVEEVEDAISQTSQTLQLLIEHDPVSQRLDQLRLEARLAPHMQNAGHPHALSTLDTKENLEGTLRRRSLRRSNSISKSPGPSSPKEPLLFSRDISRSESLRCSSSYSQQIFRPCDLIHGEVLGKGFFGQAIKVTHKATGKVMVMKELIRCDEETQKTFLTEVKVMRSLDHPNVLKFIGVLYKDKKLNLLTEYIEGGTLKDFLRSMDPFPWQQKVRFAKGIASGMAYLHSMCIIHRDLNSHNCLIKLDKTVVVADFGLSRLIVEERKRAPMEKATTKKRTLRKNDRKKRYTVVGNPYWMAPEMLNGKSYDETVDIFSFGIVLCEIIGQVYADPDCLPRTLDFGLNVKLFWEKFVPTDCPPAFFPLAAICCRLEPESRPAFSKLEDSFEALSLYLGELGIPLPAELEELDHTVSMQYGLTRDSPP
NTRK3 (human), sequence (Q16288 whole entry, looked up): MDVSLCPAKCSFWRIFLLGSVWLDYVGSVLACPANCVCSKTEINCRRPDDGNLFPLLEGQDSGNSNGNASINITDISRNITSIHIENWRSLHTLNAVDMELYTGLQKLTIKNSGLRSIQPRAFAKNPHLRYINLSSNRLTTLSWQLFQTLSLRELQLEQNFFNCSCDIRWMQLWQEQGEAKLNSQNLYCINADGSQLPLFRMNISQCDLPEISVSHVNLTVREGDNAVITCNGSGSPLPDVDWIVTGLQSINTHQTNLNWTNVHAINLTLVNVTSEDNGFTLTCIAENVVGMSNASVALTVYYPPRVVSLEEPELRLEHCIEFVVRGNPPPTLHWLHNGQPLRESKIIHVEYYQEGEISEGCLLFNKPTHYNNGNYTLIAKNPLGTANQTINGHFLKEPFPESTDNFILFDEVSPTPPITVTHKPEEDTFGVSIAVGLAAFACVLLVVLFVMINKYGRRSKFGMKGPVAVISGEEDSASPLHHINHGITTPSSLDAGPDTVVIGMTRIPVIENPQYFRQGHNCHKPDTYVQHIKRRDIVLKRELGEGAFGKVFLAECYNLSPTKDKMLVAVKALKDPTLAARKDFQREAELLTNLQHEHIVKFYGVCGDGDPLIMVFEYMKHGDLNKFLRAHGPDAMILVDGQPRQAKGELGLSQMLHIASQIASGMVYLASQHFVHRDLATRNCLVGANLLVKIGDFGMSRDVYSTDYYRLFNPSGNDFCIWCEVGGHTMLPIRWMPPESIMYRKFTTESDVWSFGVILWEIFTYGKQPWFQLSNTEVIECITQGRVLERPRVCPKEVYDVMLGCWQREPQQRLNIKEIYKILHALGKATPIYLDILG
CDK14 (human), sequence (O94921 whole entry, looked up): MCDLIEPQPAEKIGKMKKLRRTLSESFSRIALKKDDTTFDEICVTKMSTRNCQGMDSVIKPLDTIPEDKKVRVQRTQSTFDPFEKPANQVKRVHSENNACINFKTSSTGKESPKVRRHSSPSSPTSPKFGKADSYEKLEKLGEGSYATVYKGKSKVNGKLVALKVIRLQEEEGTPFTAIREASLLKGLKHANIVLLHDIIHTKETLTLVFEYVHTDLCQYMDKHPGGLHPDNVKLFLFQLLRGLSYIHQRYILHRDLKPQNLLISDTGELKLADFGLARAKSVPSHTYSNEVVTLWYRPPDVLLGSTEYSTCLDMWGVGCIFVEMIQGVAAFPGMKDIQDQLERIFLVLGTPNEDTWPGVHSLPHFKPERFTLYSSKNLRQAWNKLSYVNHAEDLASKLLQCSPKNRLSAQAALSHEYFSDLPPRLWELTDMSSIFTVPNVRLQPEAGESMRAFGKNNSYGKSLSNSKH
PIM2 (human), sequence (Q9P1W9 whole entry, looked up): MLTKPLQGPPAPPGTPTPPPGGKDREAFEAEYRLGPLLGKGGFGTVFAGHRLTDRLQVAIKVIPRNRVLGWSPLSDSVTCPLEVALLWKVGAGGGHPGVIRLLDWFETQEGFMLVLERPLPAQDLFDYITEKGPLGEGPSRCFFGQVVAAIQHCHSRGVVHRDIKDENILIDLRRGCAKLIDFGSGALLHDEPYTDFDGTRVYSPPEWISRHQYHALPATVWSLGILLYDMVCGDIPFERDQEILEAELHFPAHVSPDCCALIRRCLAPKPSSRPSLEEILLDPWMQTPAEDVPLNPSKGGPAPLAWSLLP
MAPK3 (human), sequence (P27361 whole entry, looked up): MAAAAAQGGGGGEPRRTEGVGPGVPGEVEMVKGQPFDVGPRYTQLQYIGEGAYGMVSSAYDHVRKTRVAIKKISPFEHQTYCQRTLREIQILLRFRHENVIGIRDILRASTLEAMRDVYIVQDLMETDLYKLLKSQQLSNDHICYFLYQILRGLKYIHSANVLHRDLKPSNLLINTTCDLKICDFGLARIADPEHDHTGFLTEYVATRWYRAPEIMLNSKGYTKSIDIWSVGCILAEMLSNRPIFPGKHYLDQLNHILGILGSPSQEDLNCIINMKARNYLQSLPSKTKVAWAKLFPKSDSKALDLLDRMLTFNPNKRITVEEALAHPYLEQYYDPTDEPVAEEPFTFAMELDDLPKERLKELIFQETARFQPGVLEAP
PIP4K2C (human), sequence (Q8TBX8 whole entry, looked up): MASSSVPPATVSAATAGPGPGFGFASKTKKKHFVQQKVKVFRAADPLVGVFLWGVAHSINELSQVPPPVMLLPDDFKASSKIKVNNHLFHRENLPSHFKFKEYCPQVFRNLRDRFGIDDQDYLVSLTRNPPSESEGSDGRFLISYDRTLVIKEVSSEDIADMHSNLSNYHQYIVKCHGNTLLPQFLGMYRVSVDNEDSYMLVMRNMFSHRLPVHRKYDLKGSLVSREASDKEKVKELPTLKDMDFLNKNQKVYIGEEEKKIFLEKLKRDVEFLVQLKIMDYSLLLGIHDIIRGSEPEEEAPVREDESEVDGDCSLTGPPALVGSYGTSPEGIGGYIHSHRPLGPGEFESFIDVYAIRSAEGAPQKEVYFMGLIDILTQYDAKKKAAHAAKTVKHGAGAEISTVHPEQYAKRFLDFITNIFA
PAK3 (human), sequence (O75914 whole entry, looked up): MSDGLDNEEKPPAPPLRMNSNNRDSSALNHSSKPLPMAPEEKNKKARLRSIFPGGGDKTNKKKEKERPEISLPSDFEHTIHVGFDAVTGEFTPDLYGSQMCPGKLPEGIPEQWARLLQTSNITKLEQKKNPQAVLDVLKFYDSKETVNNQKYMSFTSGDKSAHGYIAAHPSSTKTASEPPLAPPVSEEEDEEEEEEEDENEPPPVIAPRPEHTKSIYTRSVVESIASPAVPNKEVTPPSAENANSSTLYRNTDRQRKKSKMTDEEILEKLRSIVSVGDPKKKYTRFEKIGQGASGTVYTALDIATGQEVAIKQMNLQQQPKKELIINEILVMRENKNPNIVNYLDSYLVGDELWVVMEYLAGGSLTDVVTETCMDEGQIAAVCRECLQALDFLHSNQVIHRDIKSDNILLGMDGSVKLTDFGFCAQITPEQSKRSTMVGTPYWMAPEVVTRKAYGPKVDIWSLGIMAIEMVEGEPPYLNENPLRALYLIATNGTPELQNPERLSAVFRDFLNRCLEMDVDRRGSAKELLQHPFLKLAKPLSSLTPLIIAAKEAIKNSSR
RPS6KA4 KD1 (human), sequence (O75676 whole entry, looked up): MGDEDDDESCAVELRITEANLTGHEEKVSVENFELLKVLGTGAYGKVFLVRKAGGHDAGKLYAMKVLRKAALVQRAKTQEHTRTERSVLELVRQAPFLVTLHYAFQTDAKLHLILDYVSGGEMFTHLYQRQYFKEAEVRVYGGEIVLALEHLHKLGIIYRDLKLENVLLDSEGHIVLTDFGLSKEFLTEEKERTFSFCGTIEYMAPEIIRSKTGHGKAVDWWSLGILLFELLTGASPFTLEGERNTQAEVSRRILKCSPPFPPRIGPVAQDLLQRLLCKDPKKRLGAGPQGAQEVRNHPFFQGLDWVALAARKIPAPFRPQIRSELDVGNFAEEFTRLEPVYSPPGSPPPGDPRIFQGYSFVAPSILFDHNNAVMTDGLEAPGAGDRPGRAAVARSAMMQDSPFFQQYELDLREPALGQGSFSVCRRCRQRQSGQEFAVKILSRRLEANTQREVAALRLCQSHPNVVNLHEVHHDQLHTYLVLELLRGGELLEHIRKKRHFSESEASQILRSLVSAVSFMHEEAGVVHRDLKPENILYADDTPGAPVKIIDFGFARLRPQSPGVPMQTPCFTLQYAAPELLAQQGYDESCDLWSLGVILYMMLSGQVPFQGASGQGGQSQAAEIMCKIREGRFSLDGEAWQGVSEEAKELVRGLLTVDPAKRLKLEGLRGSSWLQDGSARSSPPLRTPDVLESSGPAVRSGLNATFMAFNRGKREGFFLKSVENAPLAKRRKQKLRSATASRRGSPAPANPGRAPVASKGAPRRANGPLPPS
DAPK3 (human), sequence (O43293 whole entry, looked up): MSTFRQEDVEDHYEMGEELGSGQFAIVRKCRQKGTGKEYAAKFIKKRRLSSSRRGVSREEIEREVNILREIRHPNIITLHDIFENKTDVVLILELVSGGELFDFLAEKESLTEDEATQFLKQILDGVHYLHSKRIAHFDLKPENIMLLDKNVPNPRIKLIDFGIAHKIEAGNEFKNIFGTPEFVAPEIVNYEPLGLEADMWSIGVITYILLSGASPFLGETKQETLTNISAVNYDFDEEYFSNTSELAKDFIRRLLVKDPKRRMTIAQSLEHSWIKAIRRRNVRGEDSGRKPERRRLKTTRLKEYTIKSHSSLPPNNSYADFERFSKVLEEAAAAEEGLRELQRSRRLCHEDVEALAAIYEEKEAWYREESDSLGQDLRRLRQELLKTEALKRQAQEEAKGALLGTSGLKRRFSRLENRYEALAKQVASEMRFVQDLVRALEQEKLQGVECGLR

SMILES | kinase still bound, per cent of control (BLK (human)) [%] | kinase still bound, per cent of control (BRSK1 (human)) [%] | kinase still bound, per cent of control (BTK (human)) [%] | kinase still bound, per cent of control (CAMK2B (human)) [%] | kinase still bound, per cent of control (CDC42BPA (human)) [%] | kinase still bound, per cent of control (CDK14 (human)) [%] | kinase still bound, per cent of control (CSNK1A1 (human)) [%] | kinase still bound, per cent of control (CSNK1A1L (human)) [%] | kinase still bound, per cent of control (CaMK1 (human)) [%] | kinase still bound, per cent of control (DAPK3 (human)) [%] | kinase still bound, per cent of control [1] [%] | kinase still bound, per cent of control (EPHA8 (human)) [%] | kinase still bound, per cent of control (FGFR3 (human)) [%] | kinase still bound, per cent of control (GAK (human)) [%] | kinase still bound, per cent of control (GRK7 (human)) [%] | kinase still bound, per cent of control (HCK (human)) [%] | kinase still bound, per cent of control (LIMK1 (human)) [%] | kinase still bound, per cent of control (LIMK2 (human)) [%] | kinase still bound, per cent of control (MAP2K7 (human)) [%] | kinase still bound, per cent of control (MAP3K10 (human)) [%] | other results
CCN1CCN(Cc2ccc(Nc3ncc4c(n3)N(C)c3ccccc3C(=O)N4C)cc2C(F)(F)F)CC1 | 8.3 | 41 | 67 | 58 | 70 | 100 | 16 | 74 | 78 | 79 | 88 | 100 | 43 | 12 | 73 | 24 | 52 | 85 | 100 | 100 | kinase still bound, per cent of control (MAP3K4 (human)): 81%; kinase still bound, per cent of control (MAP3K6 (human)): 100%; kinase still bound, per cent of control (MAP4K1 (human)): 18%; kinase still bound, per cent of control (MAP4K3 (human)): 11%; kinase still bound, per cent of control (MAPK14 (human)): 100%; kinase still bound, per cent of control (MAPK3 (human)): 99%; kinase still bound, per cent of control (MARK3 (human)): 11%; kinase still bound, per cent of control (MAST1 (human)): 100%; kinase still bound, per cent of control (NTRK3 (human)): 100%; kinase still bound, per cent of control (PAK3 (human)): 9.4%; kinase still bound, per cent of control (PHKG2 (human)): 47%; kinase still bound, per cent of control (PIM2 (human)): 30%; kinase still bound, per cent of control (PIP4K2C (human)): 3.6%; kinase still bound, per cent of control (RPS6KA4 KD1 (human)): 100%; kinase still bound, per cent of control (SNRK (human)): 88%; kinase still bound, per cent of control (SRPK1 (human)): 82%; kinase still bound, per cent of control (SRPK2 (human)): 81%; kinase still bound, per cent of control (TNK2 (human)): 24%; kinase still bound, per cent of control [2]: 2%; kinase still bound, per cent of control (YES1 (human)): 6.6%
Cc1ccc2nc(NCCN)c3ncc(C)n3c2c1 | 100 | 90 | 100 | 73 | 85 | 100 | 68 | 100 | 98 | 53 | 98 | 100 | 99 | 79 | 100 | 100 | 100 | 100 | 100 | 100 | kinase still bound, per cent of control (MAP3K4 (human)): 100%; kinase still bound, per cent of control (MAP3K6 (human)): 100%; kinase still bound, per cent of control (MAP4K1 (human)): 81%; kinase still bound, per cent of control (MAP4K3 (human)): 80%; kinase still bound, per cent of control (MAPK14 (human)): 98%; kinase still bound, per cent of control (MAPK3 (human)): 97%; kinase still bound, per cent of control (MARK3 (human)): 100%; kinase still bound, per cent of control (MAST1 (human)): 100%; kinase still bound, per cent of control (NTRK3 (human)): 100%; kinase still bound, per cent of control (PAK3 (human)): 62%; kinase still bound, per cent of control (PHKG2 (human)): 79%; kinase still bound, per cent of control (PIM2 (human)): 100%; kinase still bound, per cent of control (PIP4K2C (human)): 100%; kinase still bound, per cent of control (RPS6KA4 KD1 (human)): 100%; kinase still bound, per cent of control (SNRK (human)): 100%; kinase still bound, per cent of control (SRPK1 (human)): 100%; kinase still bound, per cent of control (SRPK2 (human)): 89%; kinase still bound, per cent of control (TNK2 (human)): 100%; kinase still bound, per cent of control [2]: 100%; kinase still bound, per cent of control (YES1 (human)): 100%
